In this assay the target is T1, GABAB receptor (Rattus norvegicus, UniProt O88871+Q9Z0U4).
T1 construct: from tissue; host or cells: rat brain cortex membranes
T1 sequence (O88871 41-940): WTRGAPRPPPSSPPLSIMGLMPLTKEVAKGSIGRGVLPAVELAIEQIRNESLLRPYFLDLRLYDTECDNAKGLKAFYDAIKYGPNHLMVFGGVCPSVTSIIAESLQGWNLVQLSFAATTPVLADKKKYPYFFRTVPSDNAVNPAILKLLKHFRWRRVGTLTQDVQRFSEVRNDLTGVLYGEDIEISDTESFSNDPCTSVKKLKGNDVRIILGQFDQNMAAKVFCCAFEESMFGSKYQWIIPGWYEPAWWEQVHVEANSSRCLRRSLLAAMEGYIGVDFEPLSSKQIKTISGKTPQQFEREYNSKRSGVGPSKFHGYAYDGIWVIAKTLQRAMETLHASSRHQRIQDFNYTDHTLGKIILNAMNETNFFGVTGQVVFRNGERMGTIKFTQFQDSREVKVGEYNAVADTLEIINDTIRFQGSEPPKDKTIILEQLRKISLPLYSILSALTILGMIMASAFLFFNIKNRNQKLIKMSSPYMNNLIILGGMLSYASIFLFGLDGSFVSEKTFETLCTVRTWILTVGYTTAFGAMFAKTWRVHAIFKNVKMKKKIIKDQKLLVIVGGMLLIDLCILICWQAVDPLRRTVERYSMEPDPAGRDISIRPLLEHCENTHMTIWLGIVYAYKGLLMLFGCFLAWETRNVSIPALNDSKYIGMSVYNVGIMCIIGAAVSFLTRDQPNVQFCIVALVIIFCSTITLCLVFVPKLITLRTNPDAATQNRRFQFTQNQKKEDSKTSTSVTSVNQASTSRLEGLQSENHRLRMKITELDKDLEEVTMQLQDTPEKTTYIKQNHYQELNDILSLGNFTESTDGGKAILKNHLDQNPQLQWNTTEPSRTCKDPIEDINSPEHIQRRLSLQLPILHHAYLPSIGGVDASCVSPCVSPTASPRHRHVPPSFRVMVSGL
T1 sequence (Q9Z0U4 17-960 limits assumed): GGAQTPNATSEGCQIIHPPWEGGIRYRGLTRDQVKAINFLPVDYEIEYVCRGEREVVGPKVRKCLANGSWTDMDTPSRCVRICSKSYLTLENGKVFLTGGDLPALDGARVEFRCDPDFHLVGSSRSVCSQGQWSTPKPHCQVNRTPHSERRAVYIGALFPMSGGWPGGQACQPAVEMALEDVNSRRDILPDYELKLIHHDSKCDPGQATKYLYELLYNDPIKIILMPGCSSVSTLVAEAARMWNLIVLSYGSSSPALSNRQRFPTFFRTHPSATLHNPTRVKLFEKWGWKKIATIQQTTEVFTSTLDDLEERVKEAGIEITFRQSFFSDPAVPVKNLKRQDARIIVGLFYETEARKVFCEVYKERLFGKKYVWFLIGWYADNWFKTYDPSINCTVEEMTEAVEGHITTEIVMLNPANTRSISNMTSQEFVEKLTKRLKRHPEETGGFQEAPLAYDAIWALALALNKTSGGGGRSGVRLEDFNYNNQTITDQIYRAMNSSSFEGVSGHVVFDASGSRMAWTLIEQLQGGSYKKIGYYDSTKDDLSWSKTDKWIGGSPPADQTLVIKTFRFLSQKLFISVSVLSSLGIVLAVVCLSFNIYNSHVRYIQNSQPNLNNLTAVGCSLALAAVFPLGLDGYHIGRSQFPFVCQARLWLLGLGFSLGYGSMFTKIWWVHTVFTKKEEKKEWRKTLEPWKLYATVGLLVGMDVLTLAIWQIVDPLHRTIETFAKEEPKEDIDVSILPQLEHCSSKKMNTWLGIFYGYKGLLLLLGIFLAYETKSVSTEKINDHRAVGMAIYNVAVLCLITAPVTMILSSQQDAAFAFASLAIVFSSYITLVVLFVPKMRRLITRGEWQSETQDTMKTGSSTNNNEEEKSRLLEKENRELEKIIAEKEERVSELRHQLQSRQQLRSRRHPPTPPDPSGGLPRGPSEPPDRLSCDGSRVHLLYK
The experiment in a line: In vitro [35S]GTPγS binding assay in rat cortical membranes. Particulars: PAM EC50, [35S]GTPγS binding, read-out: In vitro PAM potency. Format: biochemical. The method, then:
In Vitro [^35S]GTPγS Binding Assay in Rat Cortical Membranes
Cortices of freshly harvested rat brains were dissected on an ice-cold surface and homogenized by a glass Dounce homogeniser immediately in ice-cold buffer containing 50 mM Tris, 5 mM MgCl2 and 1 mM EDTA (pH=7.6). Tissue homogenates were centrifuged at 40000 g for 15 min at 4° C. Membrane pellets were resuspended in the same buffer and membranes were incubated for 10 min at 30° C. in a shaking water bath to eliminate endogenous GABA. Homogenates were centrifuged again under the same conditions. The final pellets were resuspended in ice-cold buffer (pH=7.6) containing 50 mM Tris, 100 mM NaCl, 7 mM MgCl2, 1 mM EDTA and 1 mM dithiotreithol (DTT) to yield a concentration of 20 mg tissue weight/ml and frozen at −70° C. until use. The assay was done in a buffer containing 50 mM Tris (pH=7.4), 100 mM NaCl, 7 mM MgCl2, 1 mM EDTA and 1 mM DTT. Each assay tube contained 150 μL GDP (in a final concentration of 50 μM), 100 μL ligand and 125 μL of the membrane suspension ([…]). The assay tubes were preincubated for 10 min at 30° C. to assure equilibrium. Nonspecific binding was determined in the presence of 10 μM GTPγS; basal binding was determined in the presence of buffer only. After addition of […] [^35S]GTPγS in a volume of 25 μL to the tubes, membranes were incubated for an additional 60 min at 30° C. The assay was terminated by rapid filtration through Packard UniFilter GF/B using a Packard harvester and washed four times with 1 ml ice-cold buffer. After drying the filters at 40° C. for 1 h, 40 μL Microscint (Packard) was added to the filters and radioactivity of the filters was determined by a TopCount NXT (PerkinElmer, Waltham, MA; Alper and Nelson, Eur. J. Pharmacol. 1998, 343, 303-312; Rinken et al, Biochem. Pharmacol. 1999, 57, 155-162). Data thus gathered were used to determine PAM EC50 values for each compound as primary in vitro activity end point.
In Table 1 compounds of this invention measured in the [^35S]GTPγS binding assay are listed.
For orientation: GTPγS resists hydrolysis and so accumulates on activated G proteins.
For the compound `COC(=O)N1CCS(=O)(=O)[C@@H](c2cc(C)nc3cc([C@H]4CC[C@H](C(F)(F)F)CC4)nn23)C1` [Example 90], the EC50 was no less than 10 µM. In the case of `Cc1cc([C@H]2CN(C=O)[C@H](C)CO2)n2nc([C@H]3CC[C@H](C(F)(F)F)CC3)cc2n1` [Example 108], the EC50 was 0.1 to 1 µM. Then `Cc1cc([C@@H]2CCCN(C(=O)N3CCOCC3)C2)n2nc([C@H]3CC[C@H](C(F)(F)F)CC3)cc2n1` [Example 65], with 1 to 10 µM; and `CCOC(=O)N1CCC[C@H](c2cc(C)nc3cc([C@H]4CC[C@H](C(F)(F)F)CC4)nn23)[C@@H]1C` [Example 107], with 1 to 10 µM; and “2-[(3R)-3-{5,6-dimethyl-2-[trans-4-(trifluoromethyl)cyclohexyl]pyrazolo[1,5-a]pyrimidin-7-yl}-3-methylpiperidin-1-yl]acetic acid hydrochloride [Example 19]”, with 0.1 to 1 µM. In the case of `COC(=O)N1CCC[C@H](c2cc(C)nc3cc([C@H]4CC[C@H](C(F)(F)F)CC4)nn23)[C@H]1C` (racemic) [Example 92] it was less than 0.1 µM.

`Cc1cc([C@H]2CN(C(=O)OC(C)C)CCO2)n2nc([C@H]3CC[C@H](C(F)(F)F)CC3)cc2n1` [Example 99]: the EC50 is 0.1 to 1 µM.

As for `Cc1cc([C@@H]2CCCN(C(C)C)C2)n2nc([C@H]3CC[C@H](C(F)(F)F)CC3)cc2n1` [Example 24, (3R)-3-{5-methyl-2-[trans-4-(trifluoromethyl)cyclohexyl]pyrazolo[1,5-a]pyrimidin-7-yl}-1-(propan-2-yl)piperidine], the EC50 lay within 1 to 10 µM. In the case of `COC(=O)N1CCO[C@H](c2cc(C)nc3cc([C@H]4CC[C@H](C(F)(F)F)CC4)nn23)C1` [Example 93] it was 1 to 10 µM. Turning to `COC(=O)N1CC[C@H](C)[C@H](c2c(C)c(C)nc3cc([C@H]4CC[C@H](C(F)(F)F)CC4)nn23)C1` [Example 77], the EC50 was less than 0.1 µM.

With `Cc1cc(C2CN(C=O)CCO2)n2nc([C@H]3CC[C@H](C(F)(F)F)CC3)cc2n1` (some centres unmarked) [Example 83], the EC50 is 0.1 to 1 µM. Then `Cc1cc(C2CCCN(C)C2=O)n2nc([C@H]3CC[C@H](C(F)(F)F)CC3)cc2n1` (some centres unmarked) [Example 105], with 1 to 10 µM; and `CC(=O)N1CC[C@@H](C)[C@@H](c2cc(C)nc3c(F)c([C@H]4CC[C@H](C(F)(F)F)CC4)nn23)C1` (single isomer, unassigned) [Example 3], with 1 to 10 µM; and `Cc1cc([C@H]2CN(C(N)=O)CCO2)n2nc([C@H]3CC[C@H](C(F)(F)F)CC3)cc2n1` [Example 26, (2R)-2-{5-methyl-2-[trans-4-(trifluoromethyl)cyclohexyl]pyrazolo[1,5-a]pyrimidin-7-yl}morpholine-4-carboxamide], with 0.1 to 1 µM.

Regarding `COC(=O)N1CC[C@H](C)[C@H](c2cc(C)nc3cc([C@H]4CC[C@H](C(F)(F)F)CC4)nn23)C1` (racemic) [Example 76], the EC50 fell in the range of 0.1 to 1 µM.

Take `COC(=O)N1C[C@H](c2cc(C)nc3cc([C@H]4CC[C@H](C(F)(F)F)CC4)nn23)OC[C@@H]1C(C)C` [Example 127]: the EC50 was 0.1 to 1 µM. With `Cc1cc(C2CN(C=O)CCS2(=O)=O)n2nc([C@H]3CC[C@H](C(F)(F)F)CC3)cc2n1` (some centres unmarked) [Example 87], the EC50 is no less than 10 µM. With `CC(=O)N1CCC[C@@](C)(c2c(C)c(C)nc3cc([C@H]4CC[C@H](C(F)(F)F)CC4)nn23)C1` [Example 45], the EC50 is 0.1 to 1 µM.

Take `Cc1cc([C@@H]2CN(C=O)C(C)(C)CO2)n2nc([C@H]3CC[C@H](C(F)(F)F)CC3)cc2n1` (single isomer, unassigned) [Example 10]: the EC50 lay in the range of 1 to 10 µM. In the case of `Cc1cc([C@@H]2CCCN(C(=O)C3CC3)C2)n2nc([C@H]3CC[C@H](C(F)(F)F)CC3)cc2n1` [Example 54] it was 0.1 to 1 µM; in that of `Cc1cc([C@]2(C)CCCN(CC#N)C2)n2nc([C@H]3CC[C@H](C(F)(F)F)CC3)cc2n1` [Example 50], 0.1 to 1 µM; in that of `CC(=O)N1CCC[C@@H](c2c(C)c(C)nc3cc([C@H]4CC[C@H](C(F)(F)F)CC4)nn23)C1` [Example 33], 0.1 to 1 µM. In the case of `Cc1cc([C@@H]2CCCN(C=O)C2)n2nc([C@H]3CC[C@H](C(F)(F)F)CC3)cc2n1` [Example 22, (3R)-3-{5-methyl-2-[trans-4-(trifluoromethyl)cyclohexyl]pyrazolo[1,5-a]pyrimidin-7-yl}piperidine-1-carbaldehyde] it was 0.1 to 1 µM; in that of `Cc1cc([C@H]2CN(C=O)CCO2)n2nc([C@H]3CC[C@H](C(F)(F)F)CC3)cc2n1` [Example 86], 0.1 to 1 µM. `Cc1cc([C@H]2CCCN(C=O)[C@H]2C)n2nc([C@H]3CC[C@H](C(F)(F)F)CC3)cc2n1` (racemic) [Example 81]: the EC50 was 0.1 to 1 µM.

For the compound `COC(=O)N1CC[C@@H](C)[C@H](c2cc(C)nc3c(F)c([C@H]4CC[C@H](C(F)(F)F)CC4)nn23)C1` [Example 128], the EC50 lay in the range of 1 to 10 µM. Then `COC(=O)N1CC[C@H](C)[C@@H](c2cc(C)nc3cc([C@H]4CC[C@H](C(F)(F)F)CC4)nn23)C1` (racemic) [Example 159], with 0.1 to 1 µM; and `CCOC(=O)N1CCO[C@H](c2cc(C)nc3cc([C@H]4CC[C@H](C(F)(F)F)CC4)nn23)C1` [Example 95], with 1 to 10 µM. Then `Cc1cc([C@@H]2CCCOC2)n2nc([C@H]3CC[C@H](C(F)(F)F)CC3)cc2n1` (single isomer, unassigned) [Example 29], with 0.1 to 1 µM; and `Cc1nc2cc([C@H]3CC[C@H](C(F)(F)F)CC3)nn2c([C@@H]2CN(C)CC[C@@H]2C)c1C` (racemic) [Example 56], with 1 to 10 µM. In the case of `CCc1c(C)nc2cc([C@H]3CC[C@H](C(F)(F)F)CC3)nn2c1[C@@]1(C)CCCN(C(C)=O)C1` [Example 35] it was less than 0.1 µM. As for `COCCOC(=O)N1CCO[C@@H](c2cc(C)nc3cc([C@H]4CC[C@H](C(F)(F)F)CC4)nn23)C1` [Example 100], the EC50 is 0.1 to 1 µM. Then `Cc1cc(C2CN(C3COC3)CCC2(C)C)n2nc([C@H]3CC[C@H](C(F)(F)F)CC3)cc2n1` (some centres unmarked) [Example 60], with 0.1 to 1 µM.

For the compound `Cc1cc(C2OCCN(C)C2=O)n2nc([C@H]3CC[C@H](C(F)(F)F)CC3)cc2n1` (stereo partly drawn) [Example 30, 4-methyl-2-{5-methyl-2-[trans-4-(trifluoromethyl)cyclohexyl]pyrazolo[1,5-a]pyrimidin-7-yl}morpholin-3-one], the EC50 was 1 to 10 µM. Then `Cc1cc([C@@H]2CCCN(C3CCOC3)C2)n2nc([C@H]3CC[C@H](C(F)(F)F)CC3)cc2n1` (some centres unmarked) [Example 63], with 0.1 to 1 µM. Turning to `CC(=O)N1CCC[C@@](C)(c2cc(C)nc3cc([C@H]4CC[C@H](C(F)(F)F)CC4)nn23)C1` [Example 41], the EC50 was less than 0.1 µM. In the case of `Cc1cc([C@H]2CN(S(=O)(=O)N(C)C)CCO2)n2nc([C@H]3CC[C@H](C(F)(F)F)CC3)cc2n1` [Example 120] it was 0.1 to 1 µM; in that of `Cc1cc([C@]2(C)CCCN(C(=N)N)C2)n2nc([C@H]3CC[C@H](C(F)(F)F)CC3)cc2n1` [Example 64], 1 to 10 µM; in that of `COC(=O)N1CCSC(c2cc(C)nc3cc([C@H]4CC[C@H](C(F)(F)F)CC4)nn23)C1` (stereo partly drawn) [Example 126, methyl 2-{5-methyl-2-[trans-4-(trifluoromethyl)cyclohexyl]pyrazolo[1,5-a]pyrimidin-7-yl}thiomorpholine-4-carboxylate], 0.1 to 1 µM. In the case of `COC(=O)N1C[C@@H](c2cc(C)nc3cc([C@H]4CC[C@H](C(F)(F)F)CC4)nn23)OC[C@@H]1C` [Example 96] it was 1 to 10 µM.

Regarding `Cc1cc([C@@H]2CN(C=O)CC[C@@H]2C)n2nc([C@H]3CC[C@H](C(F)(F)F)CC3)cc2n1` (single isomer, unassigned) [Example 8], the EC50 was in the range of 1 to 10 µM. Take `CC(=O)N1CCCC(CF)(c2cc(C)nc3cc([C@H]4CC[C@H](C(F)(F)F)CC4)nn23)C1` (some centres unmarked) [Example 62]: the EC50 is 0.1 to 1 µM.

For `COC(=O)N1CC[S+]([O-])C(c2cc(C)nc3cc([C@H]4CC[C@H](C(F)(F)F)CC4)nn23)C1` (some centres unmarked) [Example 17], the EC50 lay within 1 to 10 µM. With `Cc1nc2cc([C@H]3CC[C@H](C(F)(F)F)CC3)nn2c(C2CN(C=O)CCO2)c1C` (some centres unmarked) [Example 80], the EC50 lay in the range of 0.1 to 1 µM.

For `Cc1nc2cc([C@H]3CC[C@H](C(F)(F)F)CC3)nn2c([C@@H]2CCCN(C(=O)CN)C2)c1C` [Example 52], the EC50 lay within 1 to 10 µM. Then `COC(=O)N1CCOC(c2cc(C)nc3cc([C@H]4CC[C@H](C(F)(F)F)CC4)nn23)C1` (some centres unmarked) [Example 84], with 0.1 to 1 µM. Then `CC(=O)N1CCO[C@@H](c2cc(C)nc3cc([C@H]4CC[C@H](C(F)(F)F)CC4)nn23)C1` [Example 109], with 0.1 to 1 µM.

The values are drawn from patent US12473293B2, “Pharmacologically active heterocyclic-substituted pyrazolo[1,5-a]pyrimidine derivatives” (Richter Gedeon Nyrt., priority 2020, dated 2025).
